In patent US20200354426A1 (MEDIMMUNE LIMITED, priority 2016, published 2020):
Values joined by “and” are separate entries in the source; they are usually repeats but may differ in a detail not shown here. Identical values can stand only once. Numbered stars: 1 amine (or outer) side, 2 acyl side, 3 side chain; on linkers, the order of the positions; unused ones are H or OH. Side chains are listed from the residue outwards. Ends that are not written are not given here. Peptide text beside a SMILES is read from it. * marks the point of attachment. γGlu = O=C(O)[C@H](CCC(=O)[*:2])N[*:1]; Palmitoyl = CCCCCCCCCCCCCCCC(=O)*; Ahx = NCCCCCC(=O)O

Experiments:
Assay in all cases: cAMP activity assay in assay medium (assay 1)
Format in all cases: cell-based
[1] = molecular target: Human GLP1R (Homo sapiens, UniProt P43220); design: expressed in transfected cells; settings: assay medium; Table 4; read-out: hGLP1R EC50
Text: (§1) Biological Activity of Peptides in Cell-Based cAMP Activity Assay (Assay 1):
(§2) All sample dilutions were made in duplicate.

[2] = molecular target: T1, Human GIPr (Homo sapiens, UniProt P48546); settings: assay medium; Table 4; read-out: hGIPR EC50
T1 construct: expressed in transfected cells
T1 sequence (P48546 22-466): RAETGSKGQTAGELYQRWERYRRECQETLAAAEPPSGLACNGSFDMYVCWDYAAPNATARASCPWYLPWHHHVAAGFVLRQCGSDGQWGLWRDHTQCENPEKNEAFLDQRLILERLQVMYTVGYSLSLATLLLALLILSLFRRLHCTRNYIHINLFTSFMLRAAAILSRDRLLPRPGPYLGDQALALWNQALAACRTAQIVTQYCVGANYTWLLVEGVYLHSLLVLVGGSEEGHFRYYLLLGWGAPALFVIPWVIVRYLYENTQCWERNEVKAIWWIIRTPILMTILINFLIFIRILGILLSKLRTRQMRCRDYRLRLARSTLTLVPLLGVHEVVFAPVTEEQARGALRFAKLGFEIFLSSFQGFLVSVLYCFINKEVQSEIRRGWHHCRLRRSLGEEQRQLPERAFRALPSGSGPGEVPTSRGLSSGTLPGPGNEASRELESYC
Text: as §1, §2

[3] = molecular target: T2, Human GlucR (Homo sapiens, UniProt P47871); settings: assay medium; Table 4; read-out: hGlucR EC50
T2 construct: expressed in transfected cells
Text: as §1, §2

T2 sequence (P47871 26-477): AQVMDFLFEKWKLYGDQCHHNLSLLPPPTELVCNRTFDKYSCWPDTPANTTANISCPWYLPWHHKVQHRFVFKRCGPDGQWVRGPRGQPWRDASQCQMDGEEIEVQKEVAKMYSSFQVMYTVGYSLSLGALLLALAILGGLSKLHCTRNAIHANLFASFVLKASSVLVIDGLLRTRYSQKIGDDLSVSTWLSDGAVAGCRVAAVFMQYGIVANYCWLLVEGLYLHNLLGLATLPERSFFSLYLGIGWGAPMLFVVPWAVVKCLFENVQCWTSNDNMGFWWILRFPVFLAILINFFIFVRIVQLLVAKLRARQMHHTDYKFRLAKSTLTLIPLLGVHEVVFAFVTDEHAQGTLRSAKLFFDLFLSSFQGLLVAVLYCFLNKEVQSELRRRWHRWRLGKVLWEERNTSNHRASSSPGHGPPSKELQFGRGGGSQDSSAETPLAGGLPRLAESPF
Human GLP1R, sequence (P43220 24-463): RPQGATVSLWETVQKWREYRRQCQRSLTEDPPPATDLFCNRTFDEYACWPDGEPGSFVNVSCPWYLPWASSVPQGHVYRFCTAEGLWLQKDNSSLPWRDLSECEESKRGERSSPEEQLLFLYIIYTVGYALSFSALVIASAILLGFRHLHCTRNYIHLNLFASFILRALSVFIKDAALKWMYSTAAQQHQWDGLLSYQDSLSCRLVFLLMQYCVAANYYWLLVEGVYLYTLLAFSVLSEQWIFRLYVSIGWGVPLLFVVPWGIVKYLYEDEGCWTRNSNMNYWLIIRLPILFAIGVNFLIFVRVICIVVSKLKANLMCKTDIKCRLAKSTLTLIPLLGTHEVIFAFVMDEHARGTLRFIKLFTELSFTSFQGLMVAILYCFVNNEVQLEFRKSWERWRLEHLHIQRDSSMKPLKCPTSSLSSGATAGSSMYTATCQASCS

Molecule	EC50 [1] [nM]	EC50 [2] [nM]	EC50 [3]
CCCCCCCCCCCCCCCC(=O)N[C@@H](CCC(=O)NCCCC[C@H](NC(=O)[C@H](Cc1ccc(O)cc1)NC(=O)[C@H](CCCCN)NC(=O)[C@H](CO)NC(=O)[C@H](Cc1ccc(O)cc1)NC(=O)[C@H](CC(=O)O)NC(=O)[C@H](CO)NC(=O)[C@@H](NC(=O)[C@H](Cc1ccccc1)NC(=O)[C@@H](NC(=O)CNC(=O)[C@H](CCC(N)=O)NC(=O)[C@H](CO)NC(=O)[C@@H](N)Cc1c[nH]cn1)[C@@H](C)O)[C@@H](C)O)C(=O)N[C@@H](CC(=O)O)C(=O)N[C@@H](CO)C(=O)N[C@@H](CCCNC(=N)N)C(=O)N[C@@H](CCCNC(=N)N)C(=O)N[C@@H](C)C(=O)N[C@@H](CCC(N)=O)C(=O)N[C@@H](CC(=O)O)C(=O)N[C@@H](Cc1ccccc1)C(=O)N[C@H](C(=O)N[C@@H](CCC(N)=O)C(=O)N[C@@H](Cc1c[nH]c2ccccc12)C(=O)N[C@@H](CC(C)C)C(=O)N[C@@H](CCC(=O)O)C(=O)N[C@@H](C)C(=O)NCC(=O)NCC(N)=O)C(C)C)C(=O)O [g601] (H-HSQGTFTSDYSKYK([γGlu-Palmitoyl])DSRRAQDFVQWLEAGG-NH2; N-terminus assumed)	0.0398	74.1	–
CCCCCCCCCCCCCCCC(=O)NCCCCCC(=O)NCCCC[C@H](NC(=O)[C@H](CO)NC(=O)[C@H](CC(=O)O)NC(=O)[C@H](CC(C)C)NC(=O)[C@H](Cc1ccc(O)cc1)NC(=O)[C@H](CCC(=O)O)NC(=O)[C@H](CO)NC(=O)[C@H](Cc1ccc(O)cc1)NC(=O)[C@H](CC(=O)O)NC(=O)[C@H](CO)NC(=O)[C@@H](NC(=O)[C@H](Cc1ccccc1)NC(=O)[C@@H](NC(=O)CNC(=O)[C@H](CCC(N)=O)NC(=O)CNC(=O)[C@@H](N)Cc1c[nH]cn1)[C@@H](C)O)[C@@H](C)O)C(=O)N[C@@H](CCCNC(=N)N)C(=O)N[C@@H](C)C(=O)N[C@@H](C)C(=O)N[C@@H](CC(=O)O)C(=O)N[C@@H](Cc1ccccc1)C(=O)N[C@H](C(=O)N[C@@H](C)C(=O)N[C@@H](Cc1c[nH]c2ccccc12)C(=O)N[C@@H](CC(C)C)C(=O)N[C@@H](CCC(=O)O)C(=O)N[C@@H](CCCNC(=N)N)C(=O)NCC(=O)NCC(N)=O)C(C)C [g683]	0.0159	126	–
CCCCCCCCCCCCCCCC(=O)N[C@@H](CCC(=O)NCCCC[C@H](NC(=O)[C@H](CO)NC(=O)[C@H](CC(=O)O)NC(=O)[C@H](CC(C)C)NC(=O)[C@H](Cc1ccc(O)cc1)NC(=O)[C@H](CCCCN)NC(=O)[C@H](CO)NC(=O)[C@H](Cc1ccc(O)cc1)NC(=O)[C@H](CC(=O)O)NC(=O)[C@H](CO)NC(=O)[C@@H](NC(=O)[C@H](Cc1ccccc1)NC(=O)[C@@H](NC(=O)CNC(=O)[C@H](CCC(N)=O)NC(=O)CNC(=O)[C@@H](N)Cc1c[nH]cn1)[C@@H](C)O)[C@@H](C)O)C(=O)N[C@@H](CCCNC(=N)N)C(=O)N[C@@H](C)C(=O)N[C@@H](C)C(=O)N[C@@H](CC(=O)O)C(=O)N[C@@H](Cc1ccccc1)C(=O)N[C@H](C(=O)N[C@@H](C)C(=O)N[C@@H](Cc1c[nH]c2ccccc12)C(=O)N[C@@H](CC(C)C)C(=O)N[C@H](C(=O)N[C@@H](C)C(=O)NCC(=O)NCC(N)=O)C(C)C)C(C)C)C(=O)O [g736] (H-HGQGTFTSDYSKYLDSK([γGlu-Palmitoyl])RAADFVAWLVAGG-NH2; N-terminus assumed)	0.0854	–	0.919 nM and 0.92 nM
CCCCCCCCCCCCCCCC(=O)N[C@@H](CCC(=O)NCCCC[C@H](NC(=O)[C@H](CO)NC(=O)[C@H](CC(=O)O)NC(=O)[C@H](CC(C)C)NC(=O)[C@H](Cc1ccc(O)cc1)NC(=O)[C@H](CCCCN)NC(=O)[C@H](CO)NC(=O)[C@H](Cc1ccc(O)cc1)NC(=O)[C@H](CC(=O)O)NC(=O)[C@H](CO)NC(=O)[C@@H](NC(=O)[C@H](Cc1ccccc1)NC(=O)[C@@H](NC(=O)CNC(=O)[C@H](CCC(=O)O)NC(=O)CNC(=O)[C@@H](N)Cc1c[nH]cn1)[C@@H](C)O)[C@@H](C)O)C(=O)N[C@@H](CCCNC(=N)N)C(=O)N[C@@H](C)C(=O)N[C@@H](C)C(=O)N[C@@H](CC(=O)O)C(=O)N[C@@H](Cc1ccccc1)C(=O)N[C@H](C(=O)N[C@@H](C)C(=O)N[C@@H](Cc1c[nH]c2ccccc12)C(=O)N[C@@H](CC(C)C)C(=O)N[C@H](C(=O)N[C@@H](C)C(=O)NCC(=O)NCC(N)=O)C(C)C)C(C)C)C(=O)O [g737] (H-HGEGTFTSDYSKYLDSK([γGlu-Palmitoyl])RAADFVAWLVAGG-NH2; N-terminus assumed)	0.0814	–	734 nM
CCCCCCCCCCCCCCCC(=O)N[C@@H](CCC(=O)NCCCC[C@H](NC(=O)[C@H](C)NC(=O)[C@H](CCCNC(=N)N)NC(=O)[C@H](CCCNC(=N)N)NC(=O)[C@H](CO)NC(=O)[C@H](CC(=O)O)NC(=O)[C@H](CC(C)C)NC(=O)[C@H](Cc1ccc(O)cc1)NC(=O)[C@H](CCCCN)NC(=O)[C@H](CO)NC(=O)[C@H](Cc1ccc(O)cc1)NC(=O)[C@H](CC(=O)O)NC(=O)[C@H](CO)NC(=O)[C@@H](NC(=O)[C@H](Cc1ccccc1)NC(=O)[C@@H](NC(=O)CNC(=O)[C@H](CCC(N)=O)NC(=O)[C@H](CO)NC(=O)[C@@H](N)Cc1c[nH]cn1)[C@@H](C)O)[C@@H](C)O)C(=O)N[C@@H](CC(=O)O)C(=O)N[C@@H](Cc1ccccc1)C(=O)N[C@H](C(=O)N[C@@H](CCC(N)=O)C(=O)N[C@@H](Cc1c[nH]c2ccccc12)C(=O)N[C@@H](CC(C)C)C(=O)N[C@@H](CCC(=O)O)C(=O)N[C@@H](C)C(=O)NCC(=O)NCC(N)=O)C(C)C)C(=O)O [g744]	2.45	–	0.0392 nM
HSQGTFTSDYSKYLDSRRAQDFVQWLVRGGPSSGAPPPSK-NH2 [g319]	0.0361	–	0.0104 nM

Next, values leading:

EC50 [1] [nM]	EC50 [2] [nM]	EC50 [3]	Molecule
11.5	–	0.0354 nM	CCCCCCCCCCCCCCCC(=O)N[C@@H](CCC(=O)NCCCC[C@H](NC(=O)[C@@H](NC(=O)[C@H](Cc1ccccc1)NC(=O)[C@H](CC(=O)O)NC(=O)[C@H](CCC(N)=O)NC(=O)[C@H](C)NC(=O)[C@H](CCCNC(=N)N)NC(=O)[C@H](CCCNC(=N)N)NC(=O)[C@H](CO)NC(=O)[C@H](CC(=O)O)NC(=O)[C@H](CC(C)C)NC(=O)[C@H](Cc1ccc(O)cc1)NC(=O)[C@H](CCCCN)NC(=O)[C@H](CO)NC(=O)[C@H](Cc1ccc(O)cc1)NC(=O)[C@H](CC(=O)O)NC(=O)[C@H](CO)NC(=O)[C@@H](NC(=O)[C@H](Cc1ccccc1)NC(=O)[C@@H](NC(=O)CNC(=O)[C@H](CCC(N)=O)NC(=O)[C@H](CO)NC(=O)[C@@H](N)Cc1c[nH]cn1)[C@@H](C)O)[C@@H](C)O)C(C)C)C(=O)N[C@@H](Cc1c[nH]c2ccccc12)C(=O)N[C@@H](CC(C)C)C(=O)N[C@@H](CCC(=O)O)C(=O)N[C@@H](C)C(=O)NCC(=O)NCC(N)=O)C(=O)O [g746]
6.65	–	0.0436 nM	CCCCCCCCCCCCCCCC(=O)NCCCCCC(=O)NCCCC[C@H](NC(=O)[C@H](C)NC(=O)[C@H](CCCNC(=N)N)NC(=O)[C@H](CCC(=O)O)NC(=O)[C@H](CO)NC(=O)[C@H](CC(=O)O)NC(=O)[C@H](CC(C)C)NC(=O)[C@H](Cc1ccc(O)cc1)NC(=O)[C@H](CCCCN)NC(=O)[C@H](CO)NC(=O)[C@H](Cc1ccc(O)cc1)NC(=O)[C@H](CC(=O)O)NC(=O)[C@H](CO)NC(=O)[C@@H](NC(=O)[C@H](Cc1ccccc1)NC(=O)[C@@H](NC(=O)CNC(=O)[C@H](CCC(N)=O)NC(=O)[C@H](CO)NC(=O)[C@@H](N)Cc1c[nH]cn1)[C@@H](C)O)[C@@H](C)O)C(=O)N[C@@H](CC(=O)O)C(=O)N[C@@H](Cc1ccccc1)C(=O)N[C@H](C(=O)N[C@@H](C)C(=O)N[C@@H](Cc1c[nH]c2ccccc12)C(=O)N[C@@H](CC(C)C)C(=O)N[C@@H](CCC(=O)O)C(=O)N[C@@H](CCCNC(=N)N)C(=O)NCC(=O)NCC(N)=O)C(C)C [g787] (H-HSQGTFTSDYSKYLDSERAK([Ahx-Palmitoyl])DFVAWLERGG-NH2; N-terminus assumed)
0.0558	–	0.00463 nM	CCCCCCCCCCCCCCCC(=O)N[C@@H](CCC(=O)NCCCC[C@H](NC(=O)[C@H](Cc1ccc(O)cc1)NC(=O)[C@H](CCCNC(=N)N)NC(=O)[C@H](CO)NC(=O)[C@H](Cc1ccc(O)cc1)NC(=O)[C@H](CC(=O)O)NC(=O)[C@H](CO)NC(=O)[C@@H](NC(=O)[C@H](Cc1ccccc1)NC(=O)[C@@H](NC(=O)CNC(=O)[C@H](CCC(N)=O)NC(=O)[C@H](CO)NC(=O)[C@@H](N)Cc1c[nH]cn1)[C@@H](C)O)[C@@H](C)O)C(=O)N[C@@H](CC(=O)O)C(=O)N[C@@H](CO)C(=O)N[C@@H](CCC(=O)O)C(=O)N[C@@H](CCCNC(=N)N)C(=O)N[C@@H](C)C(=O)N[C@@H](CCCNC(=N)N)C(=O)N[C@@H](CC(=O)O)C(=O)N[C@@H](Cc1ccccc1)C(=O)N[C@H](C(=O)N[C@@H](C)C(=O)N[C@@H](Cc1c[nH]c2ccccc12)C(=O)N[C@@H](CC(C)C)C(=O)N[C@H](C(=O)N[C@@H](C)C(=O)NCC(=O)NCC(N)=O)C(C)C)C(C)C)C(=O)O [g821]
